Test results as given in US12215123B2, “Cordycepin-based derivatized compound with anti-tumor effect” (NANJING TECH UNIVERSITY, priority 2022, dated 2025).

Assays:
MC-38 colon cancer cells = assay: Mouse transplanted colon cancer model; format: in vivo, C57BL/6j nude mice; details: MC-38 transplanted mice, 28 days, 500 ug/time/animal intragastric (compound daily, antibody every 4 days); control 1,300 mm^3
Procedure: (§1) The feeding of the mouse model in the drug evaluation follows that: mice are fed and treated in a laminar flow cabinet, with 5 nude mice in each cage, drinking water and feedstuffs are added once every 3 days, and paddings are replaced once a week; a number of mice kept in each cage is no more than 5, the mice in separate cages are kept in groups as far as possible, and the mice should not be kept in a single cage; the animal management must conform to the relevant national standards on animal feeding management, and the behavioral needs of animals should be concerned at the same time to avoid unnecessary stress; the normal physiological and behavioral needs of animals, such as defecation, urination, constant body temperature maintenance, normal activities, posture adjustment and reproduction are met; good ventilation and dry animals are kept; the animals can access to drinking water and food at will, and supplementation, replacement and cleaning operations are easily carried out; a solid and safe environment is provided to avoid accidents of animals, such as escaping or limb trapping in a gap; the animals are avoided from being damaged by sharp edges or protrusions; and the animals are not disturbed during observation.
A mouse transplanted colon cancer model was established and a drug was evaluated. […]

IDB ovarian cancer cells = assay: Mouse transplanted ovarian cancer model; format: in vivo, C57BL/6j nude mice; details: ovarian cancer transplanted mice, 15 days, 500 ug/time/animal intragastric
Procedure: as §1
A mouse transplanted ovarian cancer model was established and a drug was evaluated. […]

Compound	tumor size (MC-38 colon cancer cells)	tumor size reduced by (times) versus control (IDB ovarian cancer cells)
Nc1ncnc2c1ncn2[C@@H]1O[C@H](CO)C[C@H]1O [Cordycepin, 3′-deoxyadenosine]	730 mm^3	
CC(C)OC(=O)C(C)NP(=O)(COC[C@@H]1CC(O)[C@H](n2cnc3c(NC(=O)c4ccncc4)ncnc32)O1)Oc1ccccc1 (some centres unmarked) [Compound 24, isopropyl((((4-hydroxy-5-(6-(isonicotinamide)-9H-purin-9-yl)tetrahydrofuran-2-yl)methoxy)methyl)(phenoxy)phosphoryl)alanine ester]		about 2 times
